In ChEMBL document CHEMBL1155550, “Rationale design of biotinylated antimalarial endoperoxide carbon centered radical prodrugs for applications in proteomics” (J Med Chem, 2010):
pIC50: −log10 of the molar value.

What follows are compounds tested on Plasmodium falciparum (assay: Antiplasmodial activity against chloroquine-sensitive Plasmodium falciparum 3D7 infected in human erythrocytes assessed as inhibition of [3H]hypoxanthine incorporation after 48 hrs by liquid scintillation counting). Settings: not given; call rule not given here.
Format: functional, organism-based

With O=C(CCCC[C@@H]1SC[C@@H]2NC(=O)N[C@@H]21)NS(=O)(=O)c1cccc(CNC(=O)C23CC4CC(C2)[C@]2(OO[C@]5(CCCCC5)O2)C(C4)C3)c1 the IC50 was “Not Active”.

Same assay, conditions: Plasmodium falciparum, 3D7; read-out: IC50

Point of comparison: O=C(NCc1cccc(CNC(=O)C23CC4CC(C2)[C@]2(OO[C@]5(CCCCC5)O2)C(C4)C3)c1)OCC1c2ccccc2-c2ccccc21, pIC50 7.57. Against it:
- C[C@H]1[C@@H](CC(=O)NCc2cccc(CNC(=O)CCSSCCNC(=O)CCCC[C@@H]3SC[C@@H]4NC(=O)N[C@@H]43)c2)O[C@@H]2O[C@]3(C)CC[C@H]4[C@H](C)CC[C@@H]1[C@@]24OO3 — 0.53 log units lower, 7.04
- O=C(O)C12CC3CC(C1)[C@]1(OO[C@]4(CCCCC4)O1)C(C3)C2 — 0.75 log units lower, 6.82
- C[C@H]1[C@@H](CC(=O)NCc2cccc(CNC(=O)c3ccc(S(=O)(=O)NC(=O)CCCC[C@@H]4SC[C@@H]5NC(=O)N[C@@H]54)cc3)c2)O[C@@H]2O[C@]3(C)CC[C@H]4[C@H](C)CC[C@@H]1[C@@]24OO3 — lower, < 6.00
- O=C(NCCCC[C@H]1SC[C@H]2NC(=O)N[C@H]21)NCc1cccc(CNC(=O)C23CC4CC(C2)[C@]2(OO[C@]5(CCCCC5)O2)C(C4)C3)c1 — 1.05 log units higher, 8.62
- OCC12CC3CC(C1)[C@]1(OO[C@]4(CCCCC4)O1)C(C3)C2 — 0.51 log units higher, 8.08
- C[C@H]1[C@@H](CCOC(=O)NCCCCC[C@@H]2SC[C@@H]3NC(=O)N[C@@H]32)O[C@@H]2O[C@]3(C)CC[C@H]4[C@H](C)CC[C@@H]1[C@@]24OO3 — 1.23 log units higher, 8.80
- COC(=O)C12CC3CC(C1)[C@]1(OO[C@]4(CCCCC4)O1)C(C3)C2 — 0.67 log units higher, 8.24
- CC(C)(C)OC(=O)NCc1cccc(CNC(=O)C23CC4CC(C2)[C@]2(OO[C@]5(CCCCC5)O2)C(C4)C3)c1 — 0.72 log units higher, 8.29
